In PMC11845477, “Exploring the principles behind antibiotics with limited resistance” (Nature Communications, 2025):

Key:
[1] = tested on: A. baumannii ATCC 17978 (SEN) and A. baumannii ATCC BAA-1605 (MDR); assay: Adaptive laboratory evolution (ALE), relative MIC of evolved lines; format: cell-based, Acinetobacter baumannii; conditions: for Relative MIC (log10): AB-SEN (Acinetobacter baumannii ATCC 17978)
Description: (§1) Using the same set of bacterial strains, we initiated adaptive laboratory evolution with the aim to maximize the level of antibiotic resistance in the populations achieved during a longer, but fixed time period.
(§2) An established protocol for adaptive laboratory evolution[46],[73] was followed to propagate populations with the highest resistance levels. Starting with an antibiotic concentration that caused approximately 50% growth inhibition, ten parallel populations for each antibiotic-ancestor strain combination were grown for 72 hours at 37 °C with continuous shaking (300 RPM). MHB broth medium was used unless stated otherwise. After each incubation, 20 µl of each culture was transferred to four new wells containing fresh medium with increasing antibiotic concentrations (0.5×, 1×, 1.5×, and 2.5× the previous concentration) in a chessboard layout to monitor potential cross-contamination. Growth was monitored by measuring OD600 using a Biotek Synergy 2 microplate reader, and only populations grown in the highest drug concentration with an OD600 > 0.2 were transferred further.
(§3) A robotic liquid handling system was used to automatically prepare a 11 to 16-step serial dilution in 384-well microtiter plates (Greiner). A final concentration of 5 × 10^5 bacterial cells per mL were inoculated into each well containing 60 µL MHB medium. Bacterial cultures were incubated at 37 °C with continuous shaking (Infors shaker, 900 rpm with 3 mm throw) for 18 hours (2 replicates from each). Cell growth was monitored by measuring the optical density (OD600 values, using Biotek Synergy microplate reader). MIC was defined as the antibiotic concentration of complete growth inhibition (i.e., OD600 < 0.05). Relative MIC was calculated as follows:1 relativeMIC=MICevolved/MICancestor […]
(§4) Supplementary Figure 4. Resistance levels following adaptive laboratory evolution across bacterial strains. The level of resistance was measured as the fold change in relative MIC between evolved and ancestral strains after ~60 days of adaptive laboratory evolution. Data are grouped by bacterial strain (A. baumannii (AB), E. coli (EC), K. pneumoniae (KP), and P. aeruginosa (PA)) and categorized as either multidrug-resistant (MDR) or sensitive (SEN). Each data point represents a laboratory evolved line, and boxplots show the median, first and third quartiles, with whiskers indicating the 5th and 95th percentiles.
(§5) Statistical analysis was performed using two-sided Dunn’s post-hoc test with Benjamini-Hochberg correction for multiple comparisons (****/ ***/ **/ * indicates p < 0.0001/ 0.001/ 0.01/ 0.05). For detailed information on antibiotic and bacterial species, see Supplementary Table 1. For mode of action groups, refer to Table 1. Source data are provided as a Source Data file.

[2] = tested on: K. pneumoniae ATCC 10031 (SEN) and K. pneumoniae ATCC 700603 (MDR); assay: as above; format: cell-based, Klebsiella pneumoniae
Description: as §1, §2, §3, §4, §5

With `Nc1nc(-n2cc(C(=O)O)c(=O)c3cc(F)c(N4CC(O)C4)c(Cl)c32)c(F)cc1F` [Delafloxacin] the “Relative MIC” value ([1]; AB-SEN (ATCC 17978), evolved line 1, MIC of evolved line / MIC of ancestor) was 256, the “Relative MIC” value ([1]; AB-SEN (ATCC 17978), evolved line 2, MIC of evolved line / MIC of ancestor) was 128 and the “Relative MIC” value ([1]; AB-SEN (ATCC 17978), evolved line 3, MIC of evolved line / MIC of ancestor) was 256. The “Relative MIC” value ([1]; AB-SEN (ATCC 17978), evolved line 4, MIC of evolved line / MIC of ancestor) was 256, the “Relative MIC” value ([1]; AB-SEN (ATCC 17978), evolved line 5, MIC of evolved line / MIC of ancestor) was 512 and the “Relative MIC” value ([1]; AB-SEN (ATCC 17978), evolved line 6, MIC of evolved line / MIC of ancestor) was 256. For the same molecule, the “Relative MIC” value ([1]; AB-SEN (ATCC 17978), evolved line 7, MIC of evolved line / MIC of ancestor) was 128, the “Relative MIC” value ([1]; AB-SEN (ATCC 17978), evolved line 8, MIC of evolved line / MIC of ancestor) was 64 and the “Relative MIC” value ([1]; AB-SEN (ATCC 17978), evolved line 9, MIC of evolved line / MIC of ancestor) was 128. The “Relative MIC” value ([1]; AB-SEN (ATCC 17978), evolved line 10, MIC of evolved line / MIC of ancestor) was 128, the “Relative MIC (log10)” value ([1]; evolved line 2 adapted to the named antibiotic) was 2.107 and the “Relative MIC (log10)” value ([1]; evolved line 4 adapted to the named antibiotic) was 2.408. The “Relative MIC (log10)” value ([1]; evolved line 5 adapted to the named antibiotic) was 2.709, the “Relative MIC (log10)” value ([1]; evolved line 6 adapted to the named antibiotic) was 2.408 and the “Relative MIC (log10)” value ([1]; evolved line 9 adapted to the named antibiotic) was 2.107. For the same molecule, the “Relative MIC” value ([1]; Acinetobacter baumannii ATCC 17978 (AB-SEN), evolved line 1) was 256, the “Relative MIC” value ([1]; Acinetobacter baumannii ATCC 17978 (AB-SEN), evolved line 2) was 128 and the “Relative MIC” value ([1]; Acinetobacter baumannii ATCC 17978 (AB-SEN), evolved line 3) was 256. For the same molecule, the “Relative MIC” value ([1]; Acinetobacter baumannii ATCC 17978 (AB-SEN), evolved line 4) was 256, the “Relative MIC” value ([1]; Acinetobacter baumannii ATCC 17978 (AB-SEN), evolved line 5) was 512 and the “Relative MIC” value ([1]; Acinetobacter baumannii ATCC 17978 (AB-SEN), evolved line 6) was 256. For the same molecule, the “Relative MIC” value ([1]; Acinetobacter baumannii ATCC 17978 (AB-SEN), evolved line 7) was 128, the “Relative MIC” value ([1]; Acinetobacter baumannii ATCC 17978 (AB-SEN), evolved line 8) was 64 and the “Relative MIC” value ([1]; Acinetobacter baumannii ATCC 17978 (AB-SEN), evolved line 9) was 128. For the same molecule, the “Relative MIC” value ([1]; Acinetobacter baumannii ATCC 17978 (AB-SEN), evolved line 10) was 128, the “Relative MIC” value ([2]; KP-MDR (ATCC 700603), evolved line 2, MIC of evolved line / MIC of ancestor) was 64 and the “Relative MIC” value ([2]; KP-MDR (ATCC 700603), evolved line 3, MIC of evolved line / MIC of ancestor) was 16. For the same molecule, the “Relative MIC” value ([2]; KP-MDR (ATCC 700603), evolved line 4, MIC of evolved line / MIC of ancestor) was 32, the “Relative MIC” value ([2]; KP-MDR (ATCC 700603), evolved line 5, MIC of evolved line / MIC of ancestor) was 32 and the “Relative MIC” value ([2]; KP-MDR (ATCC 700603), evolved line 6, MIC of evolved line / MIC of ancestor) was 128. For the same molecule, the “Relative MIC” value ([2]; KP-MDR (ATCC 700603), evolved line 7, MIC of evolved line / MIC of ancestor) was 128, the “Relative MIC” value ([2]; KP-MDR (ATCC 700603), evolved line 8, MIC of evolved line / MIC of ancestor) was 64 and the “Relative MIC” value ([2]; KP-MDR (ATCC 700603), evolved line 9, MIC of evolved line / MIC of ancestor) was 64. For the same molecule, the “Relative MIC” value ([2]; KP-MDR (ATCC 700603), evolved line 10, MIC of evolved line / MIC of ancestor) was 64, the “Relative MIC (log10)” value ([2]; KP-MDR (Klebsiella pneumoniae ATCC 700603), evolved line 2 adapted to the named antibiotic) was 1.806 and the “Relative MIC (log10)” value ([2]; KP-MDR (Klebsiella pneumoniae ATCC 700603), evolved line 6 adapted to the named antibiotic) was 2.107. The “Relative MIC (log10)” value ([2]; KP-MDR (Klebsiella pneumoniae ATCC 700603), evolved line 7 adapted to the named antibiotic) was 2.107, the “Relative MIC (log10)” value ([2]; KP-MDR (Klebsiella pneumoniae ATCC 700603), evolved line 8 adapted to the named antibiotic) was 1.806 and the “Relative MIC (log10)” value ([2]; KP-MDR (Klebsiella pneumoniae ATCC 700603), evolved line 10 adapted to the named antibiotic) was 1.806. For the same molecule, the “Relative MIC” value ([2]; KP-SEN (ATCC 10031), evolved line 1, MIC of evolved line / MIC of ancestor) was 16384, the “Relative MIC” value ([2]; KP-SEN (ATCC 10031), evolved line 2, MIC of evolved line / MIC of ancestor) was 8192 and the “Relative MIC” value ([2]; KP-SEN (ATCC 10031), evolved line 3, MIC of evolved line / MIC of ancestor) was 16384. For the same molecule, the “Relative MIC” value ([2]; KP-SEN (ATCC 10031), evolved line 4, MIC of evolved line / MIC of ancestor) was 8192, the “Relative MIC” value ([2]; KP-SEN (ATCC 10031), evolved line 5, MIC of evolved line / MIC of ancestor) was 16384 and the “Relative MIC” value ([2]; KP-SEN (ATCC 10031), evolved line 6, MIC of evolved line / MIC of ancestor) was 16384. The “Relative MIC” value ([2]; KP-SEN (ATCC 10031), evolved line 7, MIC of evolved line / MIC of ancestor) was 8192, the “Relative MIC” value ([2]; KP-SEN (ATCC 10031), evolved line 8, MIC of evolved line / MIC of ancestor) was 65536 and the “Relative MIC” value ([2]; KP-SEN (ATCC 10031), evolved line 9, MIC of evolved line / MIC of ancestor) was 65536. For the same molecule, the “Relative MIC (log10)” value ([2]; KP-SEN (Klebsiella pneumoniae ATCC 10031), evolved line 1 adapted to the named antibiotic) was 4.214, the “Relative MIC (log10)” value ([2]; KP-SEN (Klebsiella pneumoniae ATCC 10031), evolved line 3 adapted to the named antibiotic) was 4.214 and the “Relative MIC (log10)” value ([2]; KP-SEN (Klebsiella pneumoniae ATCC 10031), evolved line 7 adapted to the named antibiotic) was 3.913. The “Relative MIC (log10)” value ([2]; KP-SEN (Klebsiella pneumoniae ATCC 10031), evolved line 8 adapted to the named antibiotic) was 4.816, the “Relative MIC (log10)” value ([2]; KP-SEN (Klebsiella pneumoniae ATCC 10031), evolved line 9 adapted to the named antibiotic) was 4.816 and the “Relative MIC” value ([2]; Klebsiella pneumoniae ATCC 10031 (KP-SEN), evolved line 1) was 16384. The “Relative MIC” value ([2]; Klebsiella pneumoniae ATCC 10031 (KP-SEN), evolved line 2) was 8192, the “Relative MIC” value ([2]; Klebsiella pneumoniae ATCC 10031 (KP-SEN), evolved line 3) was 16384 and the “Relative MIC” value ([2]; Klebsiella pneumoniae ATCC 10031 (KP-SEN), evolved line 4) was 8192. The “Relative MIC” value ([2]; Klebsiella pneumoniae ATCC 10031 (KP-SEN), evolved line 5) was 16384, the “Relative MIC” value ([2]; Klebsiella pneumoniae ATCC 10031 (KP-SEN), evolved line 6) was 16384 and the “Relative MIC” value ([2]; Klebsiella pneumoniae ATCC 10031 (KP-SEN), evolved line 7) was 8192. The “Relative MIC” value ([2]; Klebsiella pneumoniae ATCC 10031 (KP-SEN), evolved line 8) was 65536, the “Relative MIC” value ([2]; Klebsiella pneumoniae ATCC 10031 (KP-SEN), evolved line 9) was 65536 and the “Relative MIC” value ([2]; Klebsiella pneumoniae ATCC 700603 (KP-MDR), evolved line 2) was 64. For the same molecule, the “Relative MIC” value ([2]; Klebsiella pneumoniae ATCC 700603 (KP-MDR), evolved line 3) was 16, the “Relative MIC” value ([2]; Klebsiella pneumoniae ATCC 700603 (KP-MDR), evolved line 4) was 32 and the “Relative MIC” value ([2]; Klebsiella pneumoniae ATCC 700603 (KP-MDR), evolved line 5) was 32. For the same molecule, the “Relative MIC” value ([2]; Klebsiella pneumoniae ATCC 700603 (KP-MDR), evolved line 6) was 128, the “Relative MIC” value ([2]; Klebsiella pneumoniae ATCC 700603 (KP-MDR), evolved line 7) was 128 and the “Relative MIC” value ([2]; Klebsiella pneumoniae ATCC 700603 (KP-MDR), evolved line 8) was 64. For the same molecule, the “Relative MIC” value ([2]; Klebsiella pneumoniae ATCC 700603 (KP-MDR), evolved line 9) was 64 and the “Relative MIC” value ([2]; Klebsiella pneumoniae ATCC 700603 (KP-MDR), evolved line 10) was 64.
